Drawing on patent US9732094B2, “Arylquinazolines” (Merck Patent GmbH, priority 2013, dated 2017), this text covers Ki and IC50 for 22 compounds.

SMILES strings stand for the structures.

The term Ki denotes the equilibrium dissociation constant of an inhibitor or competing ligand from its target. By IC50 is commonly meant the point on the concentration scale where inhibition reaches its midpoint.

The target of data set [1] is T1, Kv11.1 (hERG) (Homo sapiens (Human), UniProt Q12809). The data set can be described thus: Kv11.1 ion channel binding assay (Predictor hERG fluorescence polarisation). The conditions noted are these: cells marked *: measured using hERG binding assay instead of hERG patch clamp assay; read-out: Ki [Kv1.11 hERG]. As for the experimental part:
D) Kv11.1 Ion Channel Binding Assay
Kv11.1 (hERG=human ether a go-go related […]) is a cardiac K^+ channel which should if possible not interact with the test substances. This interaction is determined quantitatively with the aid of the Predictor™ hERG Fluorescence Polarizations (FP) Assays from Life Technologies. In the case of this assay principle, cardiomyocyte cell membranes having a certain proportion of Kv11.1 channels are isolated. A dye-labelled Kv11.1 binding partner gives a high fluorescence polarisation signal by interaction with the Kv11.1. In the case of displacement of the dye, a reduction in the fluorescence polarisation signal occurs.
The assay is carried out automatically as follows: 15 nl of the test substances (highest concentration: 10 mM, 10 concentrations: dilution factors 1:3.16, DMSO) are transferred into an empty microtitre plates having 384 wells by means of an acoustic pipetter. 3 μl of the isolated membranes are subsequently added. Membranes and test substances are incubated at 22° C. for 15 min (+/−5 min). In the next step, the dye-labelled binding partner is added, followed by incubation at 22° C. After incubation for two hours, the measurement of the fluorescence polarisation is carried out on an Envision multimode Reader. Measured raw data are standardised with the aid of Genedata Assay Analyzer. The 1050 and % effect values are calculated in Genedata Condoseo.

Another data set has as its target DNA-PK (Homo sapiens (Human), UniProt P78527). As to the kind of experiment: DNA-PK assay (biochemical), flashplate 33P-ATP kinase assay. The conditions noted are these: biochemical DNA-PK assay. The method, boiled down: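 Radiometric kinase reaction in streptavidin-coated flashplates, stopped with 200 mM EDTA, then 30 min room-temperature incubation and saline washes.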

Data set [2] has as its target DNA-PK phosphorylation at serine 2056 (Homo sapiens (Human), UniProt P78527). As to the kind of experiment: DNA-PK phosphorylation at serine 2056 (cellular), bleomycin-treated HCT116 cells, ELISA. In kind it is cell-based. The note with it: cellular DNA-PK phosphorylation at serine 2056, HCT116; read-out: IC50 pDNA-PK. The method, boiled down:
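Chemiluminescent ELISA read-out; phospho-specific signal normalised to total DNA-PKcs. Cells (HCT116) exposed 6 h to test compound plus 10 μM bleomycin to induce double-strand breaks; DMSO control served as blank.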
On the technique in general: An ELISA detects its analyte on a solid surface through an enzyme-linked reagent.

The target of data set [3] is T1, Kv11.1 (hERG). As to the kind of experiment: Kv11.1 (hERG) ion channel activity (patch clamp assay), HEK293 cells transfected with hERG gene. The conditions noted are these: hERG patch clamp assay (cells without asterisk). (Block of hERG is tested as a sign of cardiac risk.)

T1 sequence (Q12809 whole entry): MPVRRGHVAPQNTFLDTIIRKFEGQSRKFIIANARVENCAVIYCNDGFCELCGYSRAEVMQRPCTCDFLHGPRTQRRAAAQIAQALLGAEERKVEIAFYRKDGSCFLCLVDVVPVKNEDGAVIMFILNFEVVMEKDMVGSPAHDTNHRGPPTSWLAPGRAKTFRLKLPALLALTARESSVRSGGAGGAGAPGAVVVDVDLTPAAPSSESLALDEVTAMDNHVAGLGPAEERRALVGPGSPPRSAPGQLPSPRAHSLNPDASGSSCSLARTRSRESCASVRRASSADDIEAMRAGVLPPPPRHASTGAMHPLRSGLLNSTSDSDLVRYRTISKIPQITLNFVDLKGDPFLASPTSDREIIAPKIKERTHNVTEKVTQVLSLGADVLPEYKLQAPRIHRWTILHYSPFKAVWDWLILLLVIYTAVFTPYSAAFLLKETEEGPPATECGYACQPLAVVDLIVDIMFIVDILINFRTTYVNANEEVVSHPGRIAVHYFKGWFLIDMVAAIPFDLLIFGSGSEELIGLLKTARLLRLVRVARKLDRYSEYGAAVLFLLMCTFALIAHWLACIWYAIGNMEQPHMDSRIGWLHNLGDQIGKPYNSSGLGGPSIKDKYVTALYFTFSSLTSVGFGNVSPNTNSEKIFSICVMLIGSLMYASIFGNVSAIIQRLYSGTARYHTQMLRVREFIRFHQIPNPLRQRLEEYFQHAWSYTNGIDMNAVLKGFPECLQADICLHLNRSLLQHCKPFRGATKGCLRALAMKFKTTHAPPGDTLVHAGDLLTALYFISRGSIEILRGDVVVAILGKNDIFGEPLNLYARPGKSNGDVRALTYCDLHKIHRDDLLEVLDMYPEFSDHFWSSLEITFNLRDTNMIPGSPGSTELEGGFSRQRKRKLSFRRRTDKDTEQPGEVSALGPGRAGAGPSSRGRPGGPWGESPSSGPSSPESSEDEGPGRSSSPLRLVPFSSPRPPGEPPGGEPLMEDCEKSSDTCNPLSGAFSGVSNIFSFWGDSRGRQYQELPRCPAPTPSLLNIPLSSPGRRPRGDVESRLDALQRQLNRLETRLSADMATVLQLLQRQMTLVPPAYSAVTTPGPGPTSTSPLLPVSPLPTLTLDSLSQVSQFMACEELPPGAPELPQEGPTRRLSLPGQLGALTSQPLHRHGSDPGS

Turning to `COc1nccnc1C(O)c1ccc(F)c(-c2ncnc3cc(N4CCOCC4)cc(F)c23)c1` (single isomer, unassigned) [Example 252, [4-Fluoro-3-(5-fluoro-7-morpholin-4-yl-quinazolin-4-yl)-phenyl]-(3-methoxy-pyrazin-2-yl)-methanol], the Ki at Kv11.1 (hERG) [1] is > 25000 nM. In addition, the values for the concentration for half-maximal inhibition (IC50) (against DNA-PK; in data set [2]) were < 3 nM and < 500 nM, respectively.

Take `[2H]C1([2H])OC([2H])([2H])C([2H])([2H])N(c2ccc3c(-c4cc(C(O)c5ccc(OC)nn5)c(Cl)cc4F)ncnc3c2)C1([2H])[2H]` (single isomer, unassigned) [Example 262, [2-Chloro-4-fluoro-5-[7-(2,2,3,3,5,5,6,6-octadeuteriomorpholin-4-yl)quinazolin-4-yl]phenyl]-(6-methoxypyridazin-3-yl)methanol]: on Kv11.1 (hERG) [1], the inhibition constant (Ki) was > 25000 nM.

On to `COc1ccc(C(O)c2cc(-c3ncnc4cc(N5CCOCC5)cc(F)c34)c(F)cc2Cl)nn1` (single isomer, unassigned) [Example 263, [2-Chloro-4-fluoro-5-(5-fluoro-7-morpholin-4-yl-quinazolin-4-yl)-phenyl]-(6-methoxy-pyridazin-3-yl)-methanol], for which the Ki on Kv11.1 (hERG) [1] is > 25000 nM. For the same compound, the IC50 is 7 to 30 nM against DNA-PK and 10000 to 30000 nM in data set [2].

Turning to `CNC(=O)C(c1ccc(F)c(-c2ncnc3cc(N4CCOCC4)ccc23)c1)c1ncccc1Cl` (stereo not drawn) [Example 230, 2-(3-Chloro-pyridin-2-yl)-2-[4-fluoro-3-(7-morpholin-4-yl-quinazolin-4-yl)-phenyl]-N-methyl-acetamide], at Kv11.1 (hERG) [1], the Ki is 15000 to 25000 nM. Also, the IC50 against DNA-PK was in the range of 7 to 30 nM; in data set [2], 5000 to 10000 nM.

Consider `Fc1cc(Cl)c(Cc2ccc3nccn3n2)cc1-c1ncnc2cc(N3CCOCC3)ccc12` [Example 235, 4-(4-Chloro-2-fluoro-5-imidazo[1,2-b]-pyridazin-6-ylmethyl - phenyl)-7-morpholin-4-ylquinazoline], for which the Ki at Kv11.1 (hERG) [1] was > 25000 nM. Further, the IC50 at DNA-PK was < 3 nM; in data set [2] it was < 500 nM.

Turning to `CNC(=O)C(c1ccc2nccn2n1)c1cc(-c2ncnc3cc(N4CCOCC4)ccc23)c(F)cc1Cl` (stereo not drawn) [Example 236, 2-[2-Chloro-4-fluoro-5-(7-morpholin-4-yl-quinazolin-4-yl)-phenyl]-2-imidazo-[1,2-b]pyridazin-6-yl-N-methylacetamide], on Kv11.1 (hERG) [1], the Ki was > 25000 nM. The IC50 on DNA-PK is > 30 nM; in data set [2] it was 5000 to 10000 nM.

Take `Cc1nccnc1C(O)c1ccc(F)c(-c2ncnc3cc(N4CCOCC4)sc23)c1` (stereo not drawn) [Example 245, [4-Fluoro-3-(6-morpholin-4-yl-thieno[3,2-d}-pyrimidin-4-yl)-phenyl]-(3-methyl-pyrazin-2-yl)-methanol]: at Kv11.1 (hERG) [1], the Ki was > 25000 nM. Further, the values for the IC50 (against DNA-PK; in data set [2]) were < 3 nM and < 500 nM, respectively.

With `Cc1nccnc1C(O)c1ccc(F)c(-c2ncnc3cc(N4CCOCC4)sc23)c1` (stereo not drawn) [Example 246, [4-Fluoro-3-(6-morpholin-4-yl-thieno[3,2-d}-pyrimidin-4-yl)-phenyl]-(3-methyl-pyrazin-2-yl)-methanol], on Kv11.1 (hERG) [1], the Ki is > 25000 nM. Moreover, the figures for the IC50 (at DNA-PK; in data set [2]) were 3 to 7 nM and 500 to 5000 nM, respectively.

With `COc1nccnc1C(O)c1cc(-c2ncnc3cc(N4CCOCC4)cc(F)c23)c(F)cc1Cl` (stereo not drawn) [Example 249, [2-Chloro-4-fluoro-5-(5-fluoro-7-morpholin-4-yl-quinazolin-4-yl)-phenyl]-(3-methoxy-pyrazin-2-yl)-methanol], the Ki at Kv11.1 (hERG) [1] was > 25000 nM. Also, the concentration for half-maximal inhibition (IC50) on DNA-PK is < 3 nM; in data set [2], < 500 nM.

With `Cc1nccnc1[C@@H](O)c1ccc(F)c(-c2ncnc3cc(N4CCOCC4)cc(F)c23)c1` [Example 251, (S)-[4-fluoro-3-(5-fluoro-7-morpholin-4-ylquinazolin-4-yl)-phenyl]-(3-methyl-pyrazin-2-yl)-methanol], the Ki on Kv11.1 (hERG) [1] was > 25000 nM. Moreover, the IC50 lay in the range of 3 to 7 nM at DNA-PK and 500 to 5000 nM in data set [2].

In the case of `CNC(=O)C(c1cc(-c2ncnc3cc(N4CCOCC4)ccc23)c(F)cc1Cl)c1nccnc1C` (stereo not drawn) [Example 254, 2-[2-Chloro-4-fluoro-5-(7-morpholin-4-yl-quinazolin-4-yl)-phenyl]-N-methyl-2-(3-methyl-pyrazin-2-yl)acetamide], the Ki on Kv11.1 (hERG) [1] was > 25000 nM. Also, the IC50 against DNA-PK was in the range of 7 to 30 nM; in data set [2] it was 10000 to 30000 nM.

As to `COc1ccc(C(O)c2ccc(F)c(-c3ncnc4cc(N5CCOCC5)cc(F)c34)c2)nn1` (stereo not drawn) [Example 255, [4-Fluoro-3-(5-fluoro-7-morpholin-4-yl-quinazolin-4-yl)-phenyl]-(6-methoxy-pyridazin-3-yl)-methanol], the Ki on Kv11.1 (hERG) [1] is > 25000 nM. For the same compound, the IC50 against DNA-PK was 7 to 30 nM; in data set [2], < 500 nM.

In the case of `COc1ccc(C(O)c2ccc(F)c(-c3ncnc4cc(N5CCOCC5)cc(F)c34)c2)nn1` (stereo not drawn) [Example 256, [4-Fluoro-3-(5-fluoro-7-morpholin-4-yl-quinazolin-4-yl)-phenyl]-(6-methoxy-pyridazin-3-yl)-methanol], the Ki at Kv11.1 (hERG) [1] is > 25000 nM. Moreover, the IC50 against DNA-PK is < 3 nM; in data set [2], < 500 nM.

As for `[2H]C1([2H])OC([2H])([2H])C([2H])([2H])N(c2ccc3c(-c4cc(C(O)c5nccnc5OC)c(Cl)cc4F)ncnc3c2)C1([2H])[2H]` (stereo not drawn) [Example 258, [2-Chloro-4-fluoro-5-[7-(2,2,3,3,5,5,6,6-octadeutenomorpholin-4-yl)quinazolin-4-yl]phenyl]-(3-methoxypyrazin-2-yl)methanol], on Kv11.1 (hERG) [1], the Ki is > 25000 nM. Further, the values for the IC50 (against DNA-PK; in data set [2]) were 3 to 7 nM and < 500 nM, respectively.

As to `[2H]C1([2H])OC([2H])([2H])C([2H])([2H])N(c2ccc3c(-c4cc(C(O)c5nccnc5C)ccc4F)ncnc3c2)C1([2H])[2H]` (stereo not drawn) [Example 259, [4-Fluoro-3-[7-(2.2,3,3,5,5,6,6-octadeuteriomorpholin-4-yl)quinazolin-4-yl]phenyl]-(3-methyl-pyrazin-2-yl)-methanol], the Ki at Kv11.1 (hERG) [1] was > 25000 nM. For the same compound, the values for the IC50 (against DNA-PK; in data set [2]) were < 3 nM and < 500 nM, respectively.

In the case of `Cc1nccnc1C(O)c1cc(-c2ncnc3cc(N4CCOCC4)sc23)c(F)cc1Cl` (stereo not drawn) [Example 264, [2-Chloro-4-fluoro-5-(6-morpholin-4-yl-thieno[3,2-d}-pyrimidin-4-yl)-phenyl]-(3-methyl-pyrazin-2-yl)-methanol], the Ki on Kv11.1 (hERG) [1] is > 25000 nM. Moreover, the IC50 against DNA-PK was < 3 nM; in data set [2], < 500 nM.

Consider `Cc1nccnc1C(O)c1ccc(F)c(-c2ncnc3cc(N4CCOCC4)sc23)c1` (stereo not drawn) [Example 265, [4-Fluoro-3-(6-morpholin-4-yl-thieno[3,2-d}-pyrimidin-4-yl)-phenyl]-(3-methyl-pyrazin-2-yl)-methanol], for which the Ki on Kv11.1 (hERG) [1] is > 25000 nM. Also, the IC50 was < 3 nM on DNA-PK and < 500 nM in data set [2].

For `COc1nccnc1C(O)c1ccc(F)c(-c2ncnc3cc(N4CCOCC4)cc(F)c23)c1` (stereo not drawn) [Example 267, [4-Fluoro-3-(5-fluoro-7-morpholin-4-yl-quinazolin-4-yl)-phenyl]-(3-methoxy-pytazin-2-yl)-methanol], on Kv11.1 (hERG) [1], the Ki is > 25000 nM. The values for the IC50 (against DNA-PK; in data set [2]) were < 3 nM and < 500 nM, respectively.

`Cc1nccnc1C(O)c1ccc(F)c(-c2ncnc3cc(N4CCOCC4)cc(F)c23)c1` (stereo not drawn) [Example 268, [4-Fluoro-3-(5-fluoro-7-morpholin-4-ylquinazolin-4-yl)phenyl]-(3-methylpyrazin-2-yl)methanol]: the Ki on Kv11.1 (hERG) [1] was > 25000 nM. The results for the half-inhibitory concentration (IC50) (against DNA-PK; in data set [2]) were < 3 nM and < 500 nM, respectively.

In the case of `COC(c1ccc(F)c(-c2ncnc3cc(N4CCOCC4)ccc23)c1)c1nccnc1C` (stereo not drawn) [Example 352, 4-{2-Fluoro-5-[methoxy-(3-methyl-pyrazin-2-yl)methyl]-phenyl}-7-morpholin-4-ylquinazoline], the Ki on Kv11.1 (hERG) [1] was > 25000 nM. Further, the IC50 against DNA-PK is > 30 nM.

With `OC(c1ccc(F)c(-c2ncnc3cc(N4CCOCC4)ccc23)c1)c1ncccc1Br` (stereo not drawn) [Example 478, (3-bromo-pyridin-2-yl)-[4-fluoro-3-(7-morpholin-4-yl-quinazolin-4-yl)-phenyl] methanol], at Kv11.1 (hERG) [3] (read-out: Ki [Kv1.11 hERG]), the Ki was < 10000 nM. Also, the figures for the IC50 (against DNA-PK; in data set [2]) were < 3 nM and < 500 nM, respectively.

At Kv11.1 (hERG) [3] (Ki [Kv1.11 hERG]), `OC(c1cccnn1)c1cc(-c2ncnc3cc(N4CCOCC4)ccc23)ccc1Cl` (stereo not drawn) [Example 479, (2-Chloro-5-(7-morpholin-4-yl-quinazolin-4-yl)-phenyl]pyridazin-3-yl-methanol] had a Ki of 15000 to 25000 nM. Further, the figures for the IC50 (against DNA-PK; in data set [2]) were 3 to 7 nM and < 500 nM, respectively.
